One may read the IC50 as the point on the concentration scale where inhibition reaches its midpoint.

The test has as its target T1, Caspase-3 (Homo sapiens, UniProt P42574).
T1 sequence (P42574 whole entry): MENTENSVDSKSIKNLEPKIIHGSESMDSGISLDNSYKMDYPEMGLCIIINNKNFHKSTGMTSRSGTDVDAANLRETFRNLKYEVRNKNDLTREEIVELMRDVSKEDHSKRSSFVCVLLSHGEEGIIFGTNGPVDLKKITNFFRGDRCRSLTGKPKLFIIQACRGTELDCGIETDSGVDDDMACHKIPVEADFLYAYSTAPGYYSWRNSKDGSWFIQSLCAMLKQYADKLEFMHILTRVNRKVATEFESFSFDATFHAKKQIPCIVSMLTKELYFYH
As to the kind of experiment: Inhibition of caspase 3 using Ac-DEVD-AFC fluorogenic substrate.
For `O=C1C(=O)N(Cc2cn(CCF)nn2)c2ccc(S(=O)(=O)N3CCC[C@H]3COc3ccc(F)cc3F)cc21`, half-maximal inhibition (IC50) required 0.5 nM.
`O=C1Nc2ccc([N+](=O)[O-])cc2C1=O` [5-NITROISATIN] displayed an IC50 of 1000 nM.
`O=C1C(=O)N(Cc2cn(CCF)nn2)c2ccc(S(=O)(=O)N3CCC[C@H]3COc3ccccc3)cc21` returned an IC50 of 16.7 nM.
